Assays:
[1] = Penetration of cortexolone 17α-propionate, Franz Diffusion Cells; type: in vitro ADME; conditions: 1% (w/w) CB-03-01 in F4H5
Description: Cortexolone 17α-propionate (developmental code name CB-03-01; 21-Hydroxy-3,20-dioxopregn-4-en-17-yl propionate; CAS Registry Number: 19608-29-8) was dissolved in 1-perfluorbutylpentane (F4H5) to result in a solution of 1% (w/w) CB-03-01 in F4H5.

[2] = Penetration of latanoprost solution in hair roots of pig's eyelashes (eyelid incubation, HPLC); type: in vitro ADME
Description: Test formulation: 0.5 mg/ml latanoprost (Yonsung, Purity 100,2%) in 1-perfluorobutylpentane (Novaliq) and 1% v/v ethanol (Merck, Secco solve dried).
Biological material: fresh pig's eyes with eyelids, not in buffer solution during transport from the slaughterhouse to the laboratory.
The upper eyelids were separated from the eye with scissors, forceps and scalpel. Each eyelid was placed in a glass vessel and incubation with the test formulation was started by addition of 1 ml of formulation. Since the eyelashes had different lengths, before incubation the eyelashes were shortened to standardise the incubation procedure. After incubation according to the plan in Table 3, the eyelids were washed with 1-perfluorobutylpentane eight times and eyelashes were plucked and weighted, as shown in Table 3.
After plucking of the eyelashes, the eyelids were punched with a 4 mm (0,126 cm^2) biopsy tool 5 times (total area 0,628 cm^2). The skin and the conjunctiva were then separated.
Extraction via addition of […] ACN (acetonitrile) to each sample at room temperature on orbital shaker (150 rpm) and minirotator (Biosan maximum level) for 2 hours. Then the samples were centrifuged for 5 minutes at 13000 rpm. The supernatant collected from the samples was stored at −20° C. till analysis.
The amount of latanoprost and of the bio transformed latanoprost acid in the tissues and eyelashes were determined via HPLC. For the calculation, the mean assay values for latanoprost acid were corrected with a factor of 1,1 as the molecular weight of latanoprost acid is lower than the weight of latanoprost.

[3] = Penetration of latanoprost into minipig skin punches with and without hair (Franz Diffusion Cells, HPLC); type: in vitro ADME, Gottingen minipig; conditions: 2 hours incubation
Description: Biological material: abdominal and dorsal full skin, R1 and part of L1 region, of 5 months old Gottingen minipig skin.
For the incubation experiments, Franz Diffusion Cells (FDC) having an inner diameter of 15 mm and an acceptor volume of 12 ml were used. Donor and acceptor chambers were made of glass.
Twelve frozen full thickness skin disks were punched with a diameter of 30 mm. After complete defrosting and equilibration to room temperature, the punches were clamped into Franz diffusion cells (FDC). Each skin disc was dried with wipes, clamped in between the corresponding FDCs having an inner diameter of 15 mm (1.767 cm^2 skin diffusion area) and an acceptor volume of approximately 12 ml. The receiver compartment of the cells was filled with PBS (phosphate buffered saline). Incubation was started by addition of 800 […]1 of test formulation 1-3. […]
Out of each skin disc, 20 skin discs having a diameter of 2 mm were obtained by punching with a disposable biopsy punch, which was put on top of the skin and pressed through the full thickness of the skin. […] The ten punches with hair and without hair obtained by each disc were placed respectively in pre-weighed tubes and the weight was determined. […]
Via HPLC analysis, the amount of latanoprost penetrated in the skin disks after incubation with the test formulations and the amount of latanoprost acid were evaluated and are illustrated in the FIGS. 1-3.

Row | Structure (SMILES) | amount found in the dermis [1] | delivery to layers of the skin ([1]; stratum corneum, epidermis and dermis) | latanoprost acid in eyelashes ([2]; 25 hours incubation, FIG. 5) | amount of latanoprost in eyelashes ([2]; FIG. 4, 2, 15, 25 hrs) | amount of latanoprost in skin parts ([2]; FIG. 4, compared with eyelashes) | uptake of latanoprost, skin punches with hair vs without hair ([3]; FIG. 1, microgram per cm^2) | content of latanoprost acid, punches with hair vs without hair ([3]; FIG. 2)
1 | CCC(=O)O[C@]1(C(=O)CO)CC[C@H]2[C@@H]3CCC4=CC(=O)CC[C@]4(C)[C@H]3CC[C@@]21C [cortexolone 17α-propionate, 21-Hydroxy-3,20-dioxopregn-4-en-17-yl propionate] | especially high amounts of cortexolone 17α-propionate were found in the dermis | effectively and rapidly delivered to layers of the skin |  |  |  |  | 
2 | CC(C)OC(=O)CCC/C=C\C[C@@H]1[C@@H](CC[C@@H](O)CCc2ccccc2)[C@H](O)C[C@@H]1O [latanoprost] |  |  | a small amount of latanoprost acid was detected | preferred affinity to the eyelashes | Comparable lower amount of latanoprost were detected in the skin parts | higher for skin punches with hair than for skin punches without hair | higher content of latanoprost acid than punches without hair

— patent publication US20260041773A1, “TOPICAL COMPOSITION COMPRISING A PROSTAGLANDIN ANALOGUE” (DERMALIQ THERAPEUTICS, INC., priority 2019, published 2026)
